Test results as given in article PMC2892826 (Cell cycle (Georgetown, Tex.), 2009).
Read-outs that look alike come from different tables or passages of the source.

Experiments:
[1] = test system: primary multiple myeloma cells from patients' bone marrow; test: Proliferation of primary MM cells; type: cell-based, human; conditions: read-out: IC50 Proliferation
[2] = molecular target: tumor T-L activity of the proteasome (Homo sapiens, UniProt Q99436); test: Proteasome activity in A549 tumor lysates after in vivo treatment, T-L; set-up: species or system nude mice; conditions: A549 tumors, 1 mpk i.p., 2 h after last injection
[3] = test system: MCF-7/MCF-10A, T80-Hras/T80, C7-Kras/C7 cells; test: TUNEL apoptosis assay in 3 pairs of cell lines; type: cell-based, human; conditions: 24 h
[4] = test system: all cancer and non-transformed cell lines except RPMI-8226; test: MTT cell viability assay, panel of cancer and non-transformed cell lines; type: cell-based; conditions: Homo sapiens, RPMI-8226, 24 h, read-out: IC50 cell viability (MTT)
[5] = test system: MCF-7 human breast tumors; test: MCF-7 xenograft in nude mice; type: in vivo; conditions: MCF-7 s.c. xenograft, 1 mpk i.p. 2x weekly; for average tumor size: start ~200 mm^3, 16 days
[6] = molecular target: CT-L activity of purified 20S proteasome (Oryctolagus cuniculus, UniProt G1SU71+G1T4Q9); test: Proteolytic activity of purified 20S proteasome, CT-L; type: biochemical, rabbit
Sequence of CT-L activity of purified 20S proteasome (G1T4Q9 60-263): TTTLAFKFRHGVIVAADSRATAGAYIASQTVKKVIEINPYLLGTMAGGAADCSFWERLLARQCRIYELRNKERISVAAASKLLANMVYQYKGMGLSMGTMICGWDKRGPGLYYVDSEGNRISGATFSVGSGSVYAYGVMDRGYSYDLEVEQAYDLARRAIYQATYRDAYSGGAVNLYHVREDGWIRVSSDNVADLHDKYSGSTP
Sequence of CT-L activity of purified 20S proteasome (G1SU71 29-241): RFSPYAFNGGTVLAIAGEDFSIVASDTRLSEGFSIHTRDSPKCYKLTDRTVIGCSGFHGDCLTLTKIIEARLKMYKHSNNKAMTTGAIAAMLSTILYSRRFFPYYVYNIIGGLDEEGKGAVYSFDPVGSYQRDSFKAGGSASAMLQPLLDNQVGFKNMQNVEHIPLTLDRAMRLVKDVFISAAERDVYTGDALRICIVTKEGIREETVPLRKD

T80-Hras ovarian cells = test: MTT cell viability assay; type: cell-based, human; conditions: read-out: IC50 cell viability (MTT)
[7] = test system: primary multiple myeloma cells from patients' bone marrow; test: Cell death of primary MM cells; type: cell-based, human; conditions: read-out: IC50 Cell Death
[8] = molecular target: tumor PGPH activity of the proteasome (Homo sapiens, UniProt P28072); test: Proteasome activity in A549 tumor lysates after in vivo treatment, PGPH; set-up: species or system nude mice; conditions: A549 tumors, 1 mpk i.p., 2 h after last injection
[9] = molecular target: tumor CT-L activity of the proteasome (Homo sapiens, UniProt P20618+P28074); test: Proteasome activity in A549 tumor lysates after in vivo treatment, CT-L; set-up: species or system nude mice; conditions: A549 tumors, 1 mpk i.p., 2 h after last injection
A549 human lung tumors = test: A549 xenograft in nude mice; type: in vivo; conditions: A549 s.c. xenograft, 1 mpk i.p. 2x weekly; for average tumor size: start ~200 mm^3, 16 days
[10] = test system: p27^Kip1 levels in A549 lung cancer cells; test: Western blot of p27Kip1 in cultured A549 cells; type: cell-based, human; conditions: 48 h
[11] = test system: MCF-7 breast cancer cells; test: MTT cell viability assay; type: cell-based, human; conditions: read-out: IC50 cell viability (MTT)
[12] = test system: MCF-7/MCF-10A, T80-Hras/T80, C7-Kras/C7 cells; test: Cell death by Trypan Blue exclusion in 3 pairs of cell lines; type: cell-based, human; conditions: 24 h, Fig. 4
A549 lung cancer cells = test: MTT cell viability assay; type: cell-based, human; conditions: read-out: IC50 cell viability (MTT)
[13] = test system: MCF-10A immortalized non-transformed breast cells; test: MTT cell viability assay; type: cell-based, human
[14] = molecular target: PGPH activity of purified 20S proteasome (Oryctolagus cuniculus, UniProt G1T235); test: Proteolytic activity of purified 20S proteasome, PGPH; type: biochemical, rabbit; conditions: read-out: IC50 PGPH, in vitro
Sequence of PGPH activity of purified 20S proteasome (G1T235 96-265): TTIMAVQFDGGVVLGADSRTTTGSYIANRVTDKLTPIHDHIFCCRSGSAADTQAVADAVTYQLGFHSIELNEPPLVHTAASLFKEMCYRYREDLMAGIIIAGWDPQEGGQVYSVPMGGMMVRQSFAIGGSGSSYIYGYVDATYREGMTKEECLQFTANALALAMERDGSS

[15] = test system: C7-Kras (HPDE6-C7K-ras) pancreatic cells; test: MTT cell viability assay; type: cell-based, human
[16] = molecular target: T-L activity of purified 20S proteasome (Oryctolagus cuniculus, UniProt G1SWK8); test: Proteolytic activity of purified 20S proteasome, T-L; type: biochemical, rabbit; conditions: read-out: IC50 T-L, in vitro
Sequence of T-L activity of purified 20S proteasome (G1SWK8 44-271): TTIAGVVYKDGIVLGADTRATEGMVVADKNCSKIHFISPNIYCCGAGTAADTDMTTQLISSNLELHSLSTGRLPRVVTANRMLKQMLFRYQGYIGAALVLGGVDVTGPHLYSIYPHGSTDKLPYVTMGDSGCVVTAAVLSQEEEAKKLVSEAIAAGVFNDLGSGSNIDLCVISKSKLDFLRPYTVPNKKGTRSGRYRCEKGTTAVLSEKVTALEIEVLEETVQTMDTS

[17] = molecular target: hepatic CT-L, T-L, and PGPH activities (Mus musculus, UniProt O09061+O55234+P70195+Q60692); type: in vivo, nude mice; conditions: livers of A549 tumor-bearing mice, 1 mpk i.p., 2 h after last injection
[18] = test system: U266 multiple myeloma cells; test: MTT cell viability assay; type: cell-based, human; conditions: read-out: IC50 cell viability (MTT)
[19] = test system: RPMI-8226 multiple myeloma cells; test: MTT cell viability assay; type: cell-based, human; conditions: read-out: IC50 cell viability (MTT)
[20] = test system: primary multiple myeloma cells from patients' bone marrow; test: Viability of primary MM cells; type: cell-based, human; conditions: read-out: IC50 Viability
[21] = Tolerability in treated mice; type: in vivo; conditions: mice treated with PI-083
[22] = test system: MCF-7/MCF-10A, T80-Hras/T80, C7-Kras/C7 cells; test: Proliferation by Trypan Blue cell counting in 3 pairs of cell lines; type: cell-based, human; conditions: 24 h, Fig. 3
[23] = molecular target: T1, CT-L activity of the proteasome in primary multiple myeloma cells (Homo sapiens, UniProt P20618+P28074); test: CT-L activity in primary MM cells from patients' bone marrow; type: cell-based; conditions: read-out: IC50 CT-L Activity
T1 sequence (P28074 60-263): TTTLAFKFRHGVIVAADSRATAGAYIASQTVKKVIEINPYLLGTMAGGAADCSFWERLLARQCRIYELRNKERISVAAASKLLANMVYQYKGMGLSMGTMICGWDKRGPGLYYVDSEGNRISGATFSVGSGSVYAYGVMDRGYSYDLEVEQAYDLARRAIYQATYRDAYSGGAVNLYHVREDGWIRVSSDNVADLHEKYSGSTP
T1 sequence (P20618 29-241): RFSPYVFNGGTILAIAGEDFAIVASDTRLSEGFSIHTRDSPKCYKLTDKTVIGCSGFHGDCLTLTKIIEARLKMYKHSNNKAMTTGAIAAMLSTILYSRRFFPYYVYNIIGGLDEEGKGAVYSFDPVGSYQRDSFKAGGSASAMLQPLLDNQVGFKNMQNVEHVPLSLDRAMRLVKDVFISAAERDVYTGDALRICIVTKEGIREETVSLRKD

[24] = test system: LNCaP prostate cancer cells; test: MTT cell viability assay; type: cell-based, human
[25] = test system: DU-145 prostate cancer cells; test: MTT cell viability assay; type: cell-based, human; conditions: read-out: IC50 cell viability (MTT)
[26] = test system: C7 (HPDE6-C7) normal/immortalized pancreatic duct epithelial cells; test: MTT cell viability assay; type: cell-based, human; conditions: read-out: IC50 cell viability (MTT)
CaLu-1 lung cancer cells = test: MTT cell viability assay; type: cell-based, human; conditions: read-out: IC50 cell viability (MTT)
[27] = molecular target: CT-L activity in MCF-7/MCF-10A, T80-Hras/T80, C7-Kras/C7 cells (Homo sapiens, UniProt P20618+P28074); type: cell-based; conditions: 24 h, 3 pairs of cell lines, Fig. 2
[28] = Homo sapiens, Multiple myeloma cell, 24 h
[29] = read-out: IC50 cell viability (MTT), 24 h
[30] = read-out: IC50 cell viability (MTT), 72 h

In the case of `CC(C)C[C@H](NC(=O)[C@H](Cc1ccccc1)NC(=O)c1cnccn1)B(O)O` [Bortezomib], the IC50 [1, 28] is reported as > 10 µM, the IC50 ([1]; patient 1, 24 h) is reported as > 10 µM and the IC50 ([1]; patient 2, 24 h) is reported as > 10 µM. The IC50 ([1]; patient 3, 24 h) was > 10 µM, the IC50 ([1]; patient 5, 24 h) was > 10 µM and the IC50 ([1]; patient 6, 24 h) was > 10 µM. The IC50 ([1]; patient 7, 24 h) was > 10 µM, the IC50 ([1]; patient 8, 24 h) was > 10 µM and the IC50 ([1]; patient 9, 24 h) was > 10 µM. For the same compound, the IC50 ([1]; patient 10, 24 h) was > 10 µM, the “inhibition of tumor T-L activity vs vehicle-treated controls” value [2] was 0% and the “apoptosis (TUNEL)” value ([3]; any of the 6 cell lines) was “induced little apoptosis”. The IC50 [4] was > 30 µM, the “antitumor effect (in words)” value [5] was “ineffective” and the average tumor size [5] was 1,448 ± 145 mm^3. The “difference in potency between Bortezomib and PI-083” value ([6]; CT-L, Bortezomib vs PI-083) was 100 fold, the IC50 (T80-Hras ovarian cells; Homo sapiens, 24 h) was > 30 µM and the IC50 (T80-Hras ovarian cells; Homo sapiens, 72 h) was 0.024 ± 0.01 µM. For the same compound, the IC50 [7, 28] was > 10 µM, the IC50 ([7]; patient 1, 24 h) was > 10 µM and the IC50 ([7]; patient 2, 24 h) was > 10 µM. The IC50 ([7]; patient 3, 24 h) was > 10 µM, the IC50 ([7]; patient 5, 24 h) was > 10 µM and the IC50 ([7]; patient 6, 24 h) was > 10 µM. The IC50 ([7]; patient 7, 24 h) was > 10 µM, the IC50 ([7]; patient 8, 24 h) was > 10 µM and the IC50 ([7]; patient 9, 24 h) was > 10 µM. For the same compound, the IC50 ([7]; patient 10, 24 h) was > 10 µM, the “inhibition of tumor PGPH activity vs vehicle-treated controls” value [8] was 68% and the “inhibition of tumor CT-L activity vs vehicle-treated controls” value [9] was 70%. The average tumor size (A549 human lung tumors) was 864 ± 207 mm^3 and the “p27^Kip1 levels” value [10] was “marked increase”.
For `O=C1C(Cl)=C(Nc2ccc(S(=O)(=O)Nc3ccccn3)cc2)C(=O)c2ccccc21` [PI-083], the IC50 ([1]; patient 1, 24 h) was 5 µM, the IC50 ([1]; patient 2, 24 h) was 2.9 µM and the IC50 ([1]; patient 4, 24 h) was 1.3 µM. For the same compound, the IC50 ([1]; patient 5, 24 h) was 2.2 µM, the IC50 ([1]; patient 6, 24 h) was 2.2 µM and the IC50 ([1]; patient 10, 24 h) was 10 µM. The “inhibition of tumor T-L activity vs vehicle-treated controls” value [2] was 12%, the “apoptosis (TUNEL)” value ([3]; T80 cells) was “induced very little apoptosis” and the “apoptosis (TUNEL)” value ([3]; cancer cell lines MCF-7, T80-Hras and C7-Kras) was “induced apoptosis in all 3 cancer cell lines”. The “apoptosis (TUNEL)” value ([3]; non-transformed MCF-10A and C7) was “did not induce apoptosis”, the IC50 ([11]; MCF-7, 24 h) was 4.5 ± 0.82 µM and the IC50 ([11]; MCF-7, 72 h) was 2.2 ± 1.1 µM. For the same compound, the “cell death, cancer vs non-transformed cells” value [12] was “much more effective in increasing cell death in all 3 cancer cell lines over their non-transformed counterparts”, the IC50 (A549 lung cancer cells; A549, 24 h) was 41 ± 17 µM and the IC50 (A549 lung cancer cells; A549, 72 h) was 11 ± 6.7 µM. It also gave an IC50 [13, 29] of 17 ± 0.86 µM, an IC50 [13, 30] of 4.2 ± 2.1 µM and a tumor growth inhibition [5] of 84%. The average tumor size [5] was “about 396 ± 137 mm^3”, the IC50 [14] was 4.5 ± 1.2 µM and the IC50 ([6]; read-out: IC50 CT-L, purified 20S proteasome, in vitro) was 1 ± 0.63 µM. For the same compound, the IC50 (T80-Hras ovarian cells; T80-Hras, 24 h) was 1.5 ± 0.57 µM, the IC50 (T80-Hras ovarian cells; T80-Hras, 72 h) was 2.1 ± 0.4 µM and the IC50 [15, 29] was 2.4 ± 0.23 µM. For the same compound, the IC50 [15, 30] was 1.9 ± 0.2 µM, the IC50 ([7]; patient 5, 24 h) was 1.1 µM and the IC50 ([7]; patient 10, 24 h) was 9 µM. For the same compound, the IC50 [16] was 4.5 ± 1.4 µM, the “effect on liver proteasome activities (CT-L, T-L, PGPH)” value [17] was “did not inhibit” and the “inhibition of tumor PGPH activity vs vehicle-treated controls” value [8] was 34%. The IC50 ([18]; U266, 24 h) was 23 ± 1.7 µM, the IC50 ([18]; U266, 72 h) was 7 ± 1.5 µM and the IC50 ([19]; RPMI-8226, 24 h) was 7.4 ± 0.38 µM. For the same compound, the IC50 ([19]; RPMI-8226, 72 h) was 10 ± 4 µM, the IC50 ([20]; patient 2, 24 h) was > 10 µM and the IC50 ([20]; patient 3, 24 h) was > 10 µM. The IC50 ([20]; patient 4, 24 h) was 2.2 µM, the IC50 ([20]; patient 4, 72 h) was 2.2 µM and the IC50 ([20]; patient 5, 24 h) was 3.4 µM. It also gave an IC50 ([20]; patient 6, 72 h) of 1.4 µM, an IC50 ([20]; patient 7, 24 h) of 1.8 µM and an IC50 ([20]; patient 7, 48 h) of 1.4 µM. For the same compound, the IC50 ([20]; patient 7, 72 h) was 1.3 µM, the IC50 ([20]; patient 8, 24 h) was 2 µM and the IC50 ([20]; patient 8, 72 h) was 1.8 µM. The IC50 ([20]; patient 9, 24 h) was 1.4 µM, the IC50 ([20]; patient 10, 24 h) was > 10 µM and the “weight, appetite, activity of treated mice” value [21] was “no weight loss, change in appetite or activity”. The “inhibition of proliferation, cancer vs non-transformed cells” value [22] was “more potently than their non-transformed”, the IC50 ([23]; patient 3, 24 h) was 1.4 µM and the IC50 ([23]; patient 6, 24 h) was 1.2 µM. For the same compound, the IC50 ([23]; patient 9, 24 h) was 1.8 µM, the IC50 [24, 29] was 14 ± 2.8 µM and the IC50 [24, 30] was 5.2 ± 1.1 µM. The “inhibition of tumor CT-L activity vs vehicle-treated controls” value [9] was 43%, the tumor growth inhibition (A549 human lung tumors) was 54% and the average tumor size (A549 human lung tumors) was “about 511 ± 134 mm^3”. For the same compound, the IC50 ([25]; DU-145, 24 h) was 8.6 ± 0.63 µM, the IC50 ([25]; DU-145, 72 h) was 5 ± 0.72 µM and the “p27^Kip1 levels” value [10] was “marked increase”. The IC50 ([26]; C7, 24 h) was 5.1 ± 0.53 µM, the IC50 ([26]; C7, 72 h) was 4.2 ± 1.6 µM and the IC50 (CaLu-1 lung cancer cells; CaLu-1, 24 h) was 7.3 ± 0.43 µM. The IC50 (CaLu-1 lung cancer cells; CaLu-1, 72 h) was 4.9 ± 1.2 µM and the “selectivity of CT-L inhibition, tumor vs non-transformed cells” value [27] was “inhibited more selectively the CT-L activity in tumor over non-transformed cells”.
